Data on three compounds can be found in patent US20160106100A1, “MICROBICIDAL COMPOSITION COMPRISING AN ISOTHIAZOLONE AND AN AMINE OXIDE” (priority 2013, published 2016).

Type in all cases: cell-based
The test system of one experiment is Aspergillus niger. The experiment is described as follows: MIC and synergy index of ternary mixture Benzalkoniumchloride, N,N-Dimethyldodecan-1-amine oxide and MIT. The following applies: used alone. The method, then: In a further Experiment the synergy index of a ternary mixture of Benzalkoniumchloride, N,N-Dimethyldodecan-1-amine oxide and MIT was determined in respect of Aspergillus niger for an incubation time of 72 hours at 25 ° C.
The synergy of an active substance mixture that contains Benzalkoniumchloride in addition to N,N-Dimethyldodecan-1-amine oxide and MIT, against the microorganism Aspergillus niger is shown as in Table 4.

In experiment [1] the test system is Aspergillus niger (DSM 12623). The experiment is described as follows: MIC and synergy index of MIT + N,N-Dimethyldodecan-1-amine oxide in Sabouraud glucose agar. The following applies: for Synergy Index (Qa/QA + Qb/QB): sole biocide. The protocol: The synergism of a combination of 2-Methyl-isothiazolinone (MIT) with N,N-Dimethyldodecan-l-amine oxide was tested. Test organisms used was the mould Aspergillus niger (DSM 12623). For the purpose of the test, mixtures containing different concentrations of MIT and N,N-Dimethyldodecan-1-amine oxide were prepared and tested for their action on Aspergillus niger. The active compound mixtures in the corresponding concentrations were introduced into selective nutrient media (Sabouraud glucose agar for Aspergillus niger and the test organisms were likewise incorporated into the agar. The cell density in the agar was in each case 3.7·10^6 spores per ml for Aspergillus niger. The incubation time is 72 hours at 25° C. This was followed by visual testing for growth of Aspergillus niger. The growth was apparent through the formation of colonies or mycelia on the surface of the agar. In this way the minimum inhibitory concentrations (MICs) of the two active compounds were determined, individually and in combination. The MIC is the concentration at which there is no formation of colonies or mycelia on the surface of the agar ( Aspergillus niger).
The synergism that occurred was presented numerically by calculation of the synergy index (SI). This calculation was made using the common method of F. C. Kull et al., Applied Microbiology, vol. 9 (1961), p. 538. SI is calculated there in accordance with the following formula:
Synergy index SI=Qa/QA+Qb/QB
If the synergy index has a value of more than 1, this means that there is an antagonism. If the synergy index adopts a value of 1, this means that the action of the two biocides is additive. If the synergy index takes on a value of below 1, this means that there is synergism of the two biocides.
Calculation of the synergy index of N,N-Dimethyldodecan-1-arnine oxide+MIT in respect of Aspergillus niger for an incubation time of 72 hours at 25° C.

For experiment [2], the system named is Candida albicans (ATCC 10231). The experiment is described as follows: MIC and synergy index of MIT + N,N-Dimethyldodecan-1-amine oxide in Muller Hinton Broth. To be noted: for MHK: alone, 72 hours at 25° C.; for Synergistic Index / Total: single biocide alone. The method, then: Furthermore, the synergism of a combination of 2-Methyl-isothiazolinone (MIT) with N,N-Dimethyldodecan-1-amine oxide was tested using Candida albicans (ATCC 10231). For the purpose of the test, mixtures containing different concentrations of MIT and N,N-Dimethyldodecan-1-amine oxide were prepared and tested for their action on Candida albicans. The active compound mixtures in the corresponding concentrations were introduced into selective nutrient media (Muller Hinton Broth). The cell density in the broth was in each case 1.0-10^6 spores per ml. The incubation time is 72 hours at 25° C. This was followed by visual testing for growth of Candida albicans. In this way the minimum inhibitory concentrations (MICs) of the two active compounds were determined, individually and in combination. The synergism that occurred was presented numerically by calculation of the synergy index (SI).

As for Benzalkoniumchloride [BAC], the “Synergistic Index” value with Aspergillus niger was found to be 1.00. The MHK in the experiment with Aspergillus niger (72 hours at 25 ° C.) was found to be 80 ppm.

Turning to `Cn1sccc1=O` [MIT, 2-methylisothiazolin-3-one], the MIC in experiment [1] (as sole biocide, 72 hours at 25° C.) is on record as 1000 (MIC) ppm. The “Synergy Index (Qa/QA + Qb/QB)” value in experiment [1] is reported as 1.00. In experiment [2], the MHK was 125 ppm, the “Synergistic Index” value is 1.00 and the Total is listed as 125 ppm.

Take `CCCCCCCCCCCC[N+](C)(C)[O-]` [N,N-Dimethyldodecan-1-amine oxide]: the MIC in experiment [1] (Aspergillus niger, DSM12623, 72 h) was found to be 231 µg/mL. Moreover, the “Synergy Index (Qa/QA + Qb/QB)” value in experiment [1] worked out at 1.00. Further, in experiment [2], the MHK came to 50 ppm, the “Synergistic Index” value is listed as 1.00 and the Total came to 50 ppm.
